Reference: patent US9963442B2, “Pyridones as herbicides” (E I DU PONT DE NEMOURS AND COMPANY, priority 2014, dated 2018)

Assays:
Type in all cases: in vivo
[1] = tested on: Italian ryegrass (Lolium multiflorum); test: Test A preemergence, directed soil spray; details: approx. 10 days
How it was run: (§1)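 Visual injury score, 0–100 scale (100 = complete control), versus untreated plants after ~10 days greenhouse. Pre: directed soil spray on seeded loam/sand. Post: 2–10 cm plants, 1–2 leaves. Solvent/surfactant formulation.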

[2] = tested on: barnyardgrass (Echinochloa crus-galli); test: Test A preemergence, directed soil spray; details: approx. 10 days
How it was run: as §1

[3] = tested on: giant foxtail (Setaria faberii); test: Test A preemergence, directed soil spray; details: approx. 10 days
How it was run: as §1

[4] = tested on: kochia (Kochia scoparia); test: Test A preemergence, directed soil spray; details: approx. 10 days
How it was run: as §1

[5] = tested on: pigweed (Amaranthus retroflexus); test: Test A preemergence, directed soil spray; details: approx. 10 days
How it was run: as §1

[6] = tested on: ragweed (common ragweed, Ambrosia elatior); test: Test A preemergence, directed soil spray; details: approx. 10 days
How it was run: as §1

[7] = tested on: barnyardgrass (Echinochloa crus-galli); test: Test B flooded paddy test; parameters: key: 0 = no effect, 100 = complete control; details: Flood, 250 g ai/ha applied to paddy water at 2-leaf stage; visually evaluated after 13 to 15 days; scale 0 (no effect) to 100 (complete control)
How it was run: (§2)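 Plants grown to 2-leaf stage; pots flooded 3 cm above soil and compound applied directly into paddy water, depth held throughout. Visual rating against untreated controls after 13 to 15 days in greenhouse, 0 (no effect) to 100 (complete control).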

[8] = tested on: ducksalad (Heteranthera limosa); test: Test B flooded paddy test; parameters: key: 0 = no effect, 100 = complete control; details: Flood, 250 g ai/ha applied to paddy water at 2-leaf stage; visually evaluated after 13 to 15 days; scale 0 (no effect) to 100 (complete control)
How it was run: as §2

[9] = tested on: rice (Oryza sativa); test: Test B flooded paddy test; parameters: key: 0 = no effect, 100 = complete control; details: Flood, 250 g ai/ha applied to paddy water at 2-leaf stage; visually evaluated after 13 to 15 days; scale 0 (no effect) to 100 (complete control)
How it was run: as §2

[10] = tested on: sedge, umbrella (small-flower umbrella sedge, Cyperus difformis); test: Test B flooded paddy test; parameters: key: 0 = no effect, 100 = complete control; details: Flood, 250 g ai/ha applied to paddy water at 2-leaf stage; visually evaluated after 13 to 15 days; scale 0 (no effect) to 100 (complete control)
How it was run: as §2

[11] = tested on: barnyardgrass (Echinochloa crus-galli); test: Test C preemergence; details: scale 0 to 100, 0 is no effect, 100 is complete control
Text: (§3) Seeds of plant species selected from blackgrass (Alopecurus myosuroides), Italian ryegrass (Lolium multiflorum), winter wheat (Triticum aestivum), galium (catchweed bedstraw, Galium aparine), corn (Zea mays), large (Lg) crabgrass (Digitaria sanguinalis), giant foxtail (Setaria faberii), johnsongrass (Sorghum halepense), lambsquarters (Chenopodium album), morningglory (Ipomoea coccinea), yellow nutsedge (Cyperus esculentus), pigweed (Amaranthus retroflexus), ragweed (common ragweed, Ambrosia elatior), soybean (Glycine max), barnyardgrass (Echinochloa crus-galli), oilseed rape (Brassica napus), waterhemp (common waterhemp, Amaranthus rudis), and velvetleaf (Abutilon theophrasti) were planted into a blend of loam soil and sand and treated preemergence with test chemicals formulated in a non-phytotoxic solvent mixture which included a surfactant. At the same time, plants selected from these crop and weed species and also chickweed (common chickweed, Stellaria media), kochia (Kochia scoparia), and wild oat (Avena fatua), were planted in pots containing Sunshine Redi-Earth® planting medium comprising spaghnum peat moss, vermiculite, starter nutrients and dolomitic limestone and treated with postemergence applications of test chemicals formulated in the same manner. Plants ranged in height from 2 to 18 cm (1- to 4-leaf stage) for postemergence treatments. Treated plants and controls were maintained in a greenhouse for 13 to 15 days, after which time all species were compared to controls and visually evaluated. Plant response ratings, summarized in Table C, are based on a scale of 0 to 100 where 0 is no effect and 100 is complete control. A dash (-) response means no test result.

[12] = tested on: blackgrass (Alopecurus myosuroides); test: Test C preemergence; details: scale 0 to 100, 0 is no effect, 100 is complete control
Text: as §3

[13] = tested on: corn (Zea mays); test: Test C preemergence; details: scale 0 to 100, 0 is no effect, 100 is complete control
Text: as §3

[14] = tested on: galium (catchweed bedstraw, Galium aparine); test: Test C preemergence; details: scale 0 to 100, 0 is no effect, 100 is complete control
Text: as §3

[15] = tested on: large (Lg) crabgrass (Digitaria sanguinalis); test: Test C preemergence; details: scale 0 to 100, 0 is no effect, 100 is complete control
Text: as §3

[16] = tested on: morningglory (Ipomoea coccinea); test: Test C preemergence; details: scale 0 to 100, 0 is no effect, 100 is complete control
Text: as §3

[17] = tested on: oilseed rape (Brassica napus); test: Test C preemergence; details: scale 0 to 100, 0 is no effect, 100 is complete control
Text: as §3

[18] = tested on: winter wheat (Triticum aestivum); test: Test C preemergence; details: scale 0 to 100, 0 is no effect, 100 is complete control
Text: as §3

O=c1cccc(Oc2ncc(Cl)cn2)n1-c1ccc(C(F)(F)F)cn1 [Compound 7]
Plant response rating (0 to 100 scale, 0 no effect, 100 complete control), Ryegrass, Italian ([1]; 31 g ai/ha): 10
Plant response rating (0 to 100 scale, 0 no effect, 100 complete control), Ryegrass, Italian ([1]; 125 g ai/ha): 60
Plant response rating (0 to 100 scale, 0 no effect, 100 complete control), Barnyardgrass ([2]; 31 g ai/ha): 20
Plant response rating (0 to 100 scale, 0 no effect, 100 complete control), Barnyardgrass ([2]; 125 g ai/ha): 70
Plant response rating (0 to 100 scale, 0 no effect, 100 complete control), Foxtail, Giant ([3]; 31 g ai/ha): 60
Plant response rating (0 to 100 scale, 0 no effect, 100 complete control), Foxtail, Giant ([3]; 125 g ai/ha): 100
Plant response rating (0 to 100 scale, 0 no effect, 100 complete control), Kochia ([4]; 31 g ai/ha): 30
Plant response rating (0 to 100 scale, 0 no effect, 100 complete control), Kochia ([4]; 125 g ai/ha): 70
Plant response rating (0 to 100 scale, 0 no effect, 100 complete control), Pigweed ([5]; 31 g ai/ha): 100
Plant response rating (0 to 100 scale, 0 no effect, 100 complete control), Pigweed ([5]; 125 g ai/ha): 100
Plant response rating (0 to 100 scale, 0 no effect, 100 complete control), Ragweed ([6]; 31 g ai/ha): 10
Plant response rating (0 to 100 scale, 0 no effect, 100 complete control), Ragweed ([6]; 125 g ai/ha): 70
Plant response rating, Barnyardgrass [7]: 0
Plant response rating, Ducksalad [8]: 100
Plant response rating, Rice [9]: 0
Plant response rating, Sedge, Umbrella [10]: 90
Plant response rating, Barnyardgrass ([11]; 16 g ai/ha): 5
Plant response rating, Barnyardgrass ([11]; 31 g ai/ha): 10
Plant response rating, Barnyardgrass ([11]; 62 g ai/ha): 35
Plant response rating, Barnyardgrass ([11]; 125 g ai/ha): 75
Plant response rating, Blackgrass ([12]; 16 g ai/ha): 0
Plant response rating, Blackgrass ([12]; 31 g ai/ha): 0
Plant response rating, Blackgrass ([12]; 62 g ai/ha): 30
Plant response rating, Blackgrass ([12]; 125 g ai/ha): 85
Plant response rating, Corn ([13]; 16 g ai/ha): 0
Plant response rating, Corn ([13]; 31 g ai/ha): 0
Plant response rating, Corn ([13]; 62 g ai/ha): 10
Plant response rating, Corn ([13]; 125 g ai/ha): 10
Plant response rating, Galium ([14]; 16 g ai/ha): 0
Plant response rating, Galium ([14]; 31 g ai/ha): 50
Plant response rating, Galium ([14]; 62 g ai/ha): 98
Plant response rating, Galium ([14]; 125 g ai/ha): 100
Plant response rating, Crabgrass, Large ([15]; 16 g ai/ha): 5
Plant response rating, Crabgrass, Large ([15]; 31 g ai/ha): 60
Plant response rating, Crabgrass, Large ([15]; 62 g ai/ha): 95
Plant response rating, Crabgrass, Large ([15]; 125 g ai/ha): 100
Plant response rating, Morningglory ([16]; 16 g ai/ha): 0
Plant response rating, Morningglory ([16]; 31 g ai/ha): 0
Plant response rating, Morningglory ([16]; 62 g ai/ha): 10
Plant response rating, Morningglory ([16]; 125 g ai/ha): 25
Plant response rating, Oilseed Rape ([17]; 16 g ai/ha): 5
Plant response rating, Oilseed Rape ([17]; 31 g ai/ha): 35
Plant response rating, Oilseed Rape ([17]; 62 g ai/ha): 85
Plant response rating, Oilseed Rape ([17]; 125 g ai/ha): 95
Plant response rating, Wheat ([18]; 16 g ai/ha): 0
Plant response rating, Wheat ([18]; 31 g ai/ha): 0
Plant response rating, Wheat ([18]; 62 g ai/ha): 0
Plant response rating, Wheat ([18]; 125 g ai/ha): 0

O=c1cccc(Oc2ncc(Cl)cn2)n1-c1ccc(C(F)(F)F)cc1 [Compound 10]
Plant response rating (0 to 100 scale, 0 no effect, 100 complete control), Ryegrass, Italian ([1]; 31 g ai/ha): 10
Plant response rating (0 to 100 scale, 0 no effect, 100 complete control), Ryegrass, Italian ([1]; 125 g ai/ha): 50
Plant response rating (0 to 100 scale, 0 no effect, 100 complete control), Barnyardgrass ([2]; 31 g ai/ha): 50
Plant response rating (0 to 100 scale, 0 no effect, 100 complete control), Barnyardgrass ([2]; 125 g ai/ha): 90
Plant response rating (0 to 100 scale, 0 no effect, 100 complete control), Foxtail, Giant ([3]; 31 g ai/ha): 70
Plant response rating (0 to 100 scale, 0 no effect, 100 complete control), Foxtail, Giant ([3]; 125 g ai/ha): 100
Plant response rating (0 to 100 scale, 0 no effect, 100 complete control), Kochia ([4]; 31 g ai/ha): 30
Plant response rating (0 to 100 scale, 0 no effect, 100 complete control), Kochia ([4]; 125 g ai/ha): 60
Plant response rating (0 to 100 scale, 0 no effect, 100 complete control), Pigweed ([5]; 31 g ai/ha): 50
Plant response rating (0 to 100 scale, 0 no effect, 100 complete control), Pigweed ([5]; 125 g ai/ha): 100
Plant response rating (0 to 100 scale, 0 no effect, 100 complete control), Ragweed ([6]; 31 g ai/ha): 0
Plant response rating (0 to 100 scale, 0 no effect, 100 complete control), Ragweed ([6]; 125 g ai/ha): 10
Plant response rating, Barnyardgrass [7]: 30
Plant response rating, Ducksalad [8]: 65
Plant response rating, Rice [9]: 20
Plant response rating, Sedge, Umbrella [10]: 90
Plant response rating, Barnyardgrass ([11]; 16 g ai/ha): 15
Plant response rating, Barnyardgrass ([11]; 31 g ai/ha): 55
Plant response rating, Barnyardgrass ([11]; 62 g ai/ha): 75
Plant response rating, Barnyardgrass ([11]; 125 g ai/ha): 98
Plant response rating, Blackgrass ([12]; 16 g ai/ha): 15
Plant response rating, Blackgrass ([12]; 31 g ai/ha): 60
Plant response rating, Blackgrass ([12]; 62 g ai/ha): 95
Plant response rating, Blackgrass ([12]; 125 g ai/ha): 95
Plant response rating, Corn ([13]; 16 g ai/ha): 0
Plant response rating, Corn ([13]; 31 g ai/ha): 0
Plant response rating, Corn ([13]; 62 g ai/ha): 10
Plant response rating, Corn ([13]; 125 g ai/ha): 5
Plant response rating, Galium ([14]; 16 g ai/ha): 0
Plant response rating, Galium ([14]; 31 g ai/ha): 80
Plant response rating, Galium ([14]; 62 g ai/ha): 60
Plant response rating, Galium ([14]; 125 g ai/ha): 98
Plant response rating, Crabgrass, Large ([15]; 16 g ai/ha): 75
Plant response rating, Crabgrass, Large ([15]; 31 g ai/ha): 98
Plant response rating, Crabgrass, Large ([15]; 62 g ai/ha): 100
Plant response rating, Crabgrass, Large ([15]; 125 g ai/ha): 100
Plant response rating, Morningglory ([16]; 16 g ai/ha): 0
Plant response rating, Morningglory ([16]; 31 g ai/ha): 0
Plant response rating, Morningglory ([16]; 62 g ai/ha): 15
Plant response rating, Morningglory ([16]; 125 g ai/ha): 55
Plant response rating, Oilseed Rape ([17]; 16 g ai/ha): 0
Plant response rating, Oilseed Rape ([17]; 31 g ai/ha): 10
Plant response rating, Oilseed Rape ([17]; 62 g ai/ha): 70
Plant response rating, Oilseed Rape ([17]; 125 g ai/ha): 80
Plant response rating, Wheat ([18]; 16 g ai/ha): 0
Plant response rating, Wheat ([18]; 31 g ai/ha): 0
Plant response rating, Wheat ([18]; 62 g ai/ha): 5
Plant response rating, Wheat ([18]; 125 g ai/ha): 5
